Laboratory results reported in the supplement of paper PMC9780213.

Key:
Conditions in all cases: treatment time: 24 h
U2OS-LMNB1-TUBA1B-ACTB = assay: cell count relative to DMSO control (panel C1, DRAQ5/ER stain) (fraction of control); higher = more cells (less toxicity)
Procedure: (§1)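 U2OS-derived cells in 384-well plates were treated for 24 h with a 7-point 2-fold dilution series (top dose 20 µM for most compounds; final max DMSO 1%), then fixed, stained in four marker panels and imaged on a Cellomics ArrayScan. Cell count per treatment (three replicate plates merged) is given as a fraction of DMSO control. Panel A used parental U2OS, panel B U2OS-mOrange2-Peroxisome, panel C1 U2OS-LMNB1-TUBA1B-ACTB (DRAQ5 nuclei).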

U2OS-mOrange2-Peroxisome = assay: cell count relative to DMSO control (panel B, lysosome/peroxisome/lipid stain) (fraction of control); higher = more cells (less toxicity)
Procedure: as §1

U2OS = assay: cell count relative to DMSO control (panel A, nuclei/RNA/PMG/mitochondria stain) (fraction of control); higher = more cells (less toxicity)
Procedure: as §1

| SMILES | cell count (U2OS-LMNB1-TUBA1B-ACTB; 0.3125 µM) | cell count (U2OS-LMNB1-TUBA1B-ACTB; 0.625 µM) | cell count (U2OS-LMNB1-TUBA1B-ACTB; 1.25 µM) | cell count (U2OS-LMNB1-TUBA1B-ACTB; 2.5 µM) | cell count (U2OS-LMNB1-TUBA1B-ACTB; 5 µM) | cell count (U2OS-LMNB1-TUBA1B-ACTB; 10 µM) | cell count (U2OS-LMNB1-TUBA1B-ACTB; 20 µM) | cell count (U2OS-mOrange2-Peroxisome; 0.3125 µM) | cell count (U2OS-mOrange2-Peroxisome; 0.625 µM) | cell count (U2OS-mOrange2-Peroxisome; 1.25 µM) | cell count (U2OS-mOrange2-Peroxisome; 2.5 µM) | cell count (U2OS-mOrange2-Peroxisome; 5 µM) | cell count (U2OS-mOrange2-Peroxisome; 10 µM) | cell count (U2OS-mOrange2-Peroxisome; 20 µM) | cell count (U2OS; 0.3125 µM) | cell count (U2OS; 0.625 µM) | cell count (U2OS; 1.25 µM) | cell count (U2OS; 2.5 µM) | cell count (U2OS; 5 µM) | cell count (U2OS; 10 µM) | cell count (U2OS; 20 µM) | cell count (U2OS-LMNB1-TUBA1B-ACTB; 0.15625 µM) | cell count (U2OS-mOrange2-Peroxisome; 0.15625 µM) | cell count (U2OS; 0.15625 µM) | cell count (U2OS-LMNB1-TUBA1B-ACTB; 0.07812 µM) | cell count (U2OS-mOrange2-Peroxisome; 0.07812 µM) | cell count (U2OS; 0.07812 µM) |
| --- | --- | --- | --- | --- | --- | --- | --- | --- | --- | --- | --- | --- | --- | --- | --- | --- | --- | --- | --- | --- | --- | --- | --- | --- | --- | --- | --- |
| O=C(Oc1cc(S(=O)(=O)c2ccccc2)ccc1[N+](=O)[O-])c1ccc(Cl)cc1 | 1.05 | 1.06 | 0.969 | 0.953 | 0.983 | 1.13 | 0.989 | 0.726 | 0.838 | 0.873 | 1.02 | 1.08 | 1.26 | 0.846 | 1.05 | 1.08 | 1.11 | 1.06 | 0.997 | 0.944 | 0.966 | – | – | – | – | – | – |
| Cc1ccc(S(=O)(=O)c2ccc([N+](=O)[O-])o2)cc1 | 1.1 | 1.02 | 1.12 | 1.1 | 1.02 | 0.982 | – | 0.934 | 0.938 | 0.864 | 1.16 | 0.964 | 0.837 | – | 0.974 | 1.04 | 1.05 | 1.01 | 0.917 | 0.886 | – | 1.01 | 0.927 | 1.02 | – | – | – |
| Nc1c2ccccc2nc2ccccc12 [9-aminoacridine] | 1.11 | 1.05 | 1.12 | 0.826 | 0.239 | 0.0589 | 0.0515 | 1.12 | 0.733 | 0.6 | 0.346 | 0.104 | 0.0699 | 0.0813 | 1.08 | 1.12 | 1 | 0.751 | 0.383 | 0.226 | 0.254 | – | – | – | – | – | – |
| Cc1[nH]c2ccccc2c1CCNC(=O)c1cccs1 [CK-636] | 1.16 | 1.06 | 1.09 | 1.04 | 0.908 | 0.887 | 0.858 | 0.793 | 0.764 | 0.737 | 0.756 | 0.783 | 1.04 | 0.977 | 1.06 | 0.971 | 1.01 | 1.01 | 0.977 | 0.961 | 0.865 | – | – | – | – | – | – |
| O=C(O)CCCCC(CCSCc1ccccc1)SCc1ccccc1 (stereo not given) [CPI-613] | 1.36 | 1.4 | 1.03 | 1.06 | 1.15 | 1.08 | 1.14 | 0.907 | 1.1 | 0.897 | 1.1 | 0.851 | 0.902 | 0.849 | 1.01 | 0.993 | 0.975 | 1.04 | 1.14 | 1.11 | 1.05 | – | – | – | – | – | – |
| OC(CS)C(O)CS (stereo not given) [DTT] | 0.887 | 0.811 | 0.809 | 0.764 | 0.806 | 0.477 | 0.457 | 0.732 | 0.714 | 0.826 | 0.911 | 0.773 | 0.0574 | 0.0584 | 0.863 | 0.785 | 0.733 | 0.765 | 0.729 | 0.201 | 0.11 | – | – | – | – | – | – |
| N#CC(C#N)=NNc1ccc(OC(F)(F)F)cc1 [FCCP] | 1.11 | 1.13 | 1.01 | 1.05 | 0.894 | 0.666 | 0.651 | 0.804 | 0.769 | 0.715 | 0.625 | 0.802 | 0.659 | 0.618 | 0.961 | 0.945 | 0.883 | 0.867 | 0.897 | 0.622 | 0.704 | – | – | – | – | – | – |
| NCCCCC(N)C(=O)NC(CCCCN)C(=O)NC(Cc1c[nH]c2ccccc12)C(=O)NC(Cc1c[nH]c2ccccc12)C(=O)NC(CCCCN)C(=O)NC(CCCCN)C(=O)NC(Cc1c[nH]c2ccccc12)C(=O)NC(C(=O)NC(CCCCN)C(N)=O)C(c1ccccc1)c1ccccc1 (stereo not given) [LTX-315] | 1.13 | 1.1 | 1.08 | 1.05 | 0.842 | 0.47 | 0.0329 | 0.785 | 0.756 | 0.817 | 0.766 | 0.885 | 0.508 | 0.0593 | 1.04 | 0.967 | 1.09 | 0.948 | 0.657 | 0.15 | 0.0373 | – | – | – | – | – | – |
| CCCC[C@@H](C=O)NC(=O)[C@H](CC(C)C)NC(=O)[C@H](CC(C)C)NC(C)=O [MG-101] | 1.15 | 1.07 | 1.08 | 0.727 | 0.443 | 0.173 | 0.0712 | 0.692 | 0.642 | 0.697 | 0.608 | 0.346 | 0.242 | 0.16 | 0.986 | 0.975 | 0.773 | 0.429 | 0.198 | 0.14 | 0.0899 | – | – | – | – | – | – |
| CC(C)n1nc(-c2ccc3oc(N)nc3c2)c2c(N)ncnc21 [MLN0128] | 0.7 | 0.698 | 0.614 | 0.557 | 0.271 | – | – | 0.42 | 0.439 | 0.393 | 0.301 | 0.0428 | – | – | 0.521 | 0.481 | 0.454 | 0.408 | 0.204 | – | – | 0.748 | 0.426 | 0.584 | 0.774 | 0.578 | 0.646 |
| CN1CCC(c2c(O)cc(O)c3c(=O)cc(-c4ccccc4Cl)oc23)[C@@H](O)C1 (stereo not given in full) [alvocidib] | 0.864 | 0.789 | 0.569 | 0.314 | 0.253 | 0.239 | 0.257 | 1.61 | 1.52 | 1.18 | 1.24 | 1.29 | 0.687 | 0.372 | 0.804 | 0.575 | 0.44 | 0.221 | 0.142 | 0.14 | 0.153 | – | – | – | – | – | – |
| COc1cc(NS(C)(=O)=O)ccc1Nc1c2ccccc2nc2ccccc12 [amsacrine] | 0.954 | 0.858 | 0.513 | 0.448 | 0.441 | 0.402 | 0.373 | 0.619 | 0.639 | 0.486 | 0.428 | 0.312 | 0.203 | 0.142 | 1.04 | 0.838 | 0.405 | 0.402 | 0.322 | 0.359 | 0.329 | – | – | – | – | – | – |
| N#C[C@H](O[C@@H]1O[C@H](CO[C@@H]2O[C@H](CO)[C@@H](O)[C@H](O)[C@H]2O)[C@@H](O)[C@H](O)[C@H]1O)c1ccccc1 [amygdalin] | 1.05 | 1.15 | 0.992 | 1.01 | 0.959 | 1.1 | 0.956 | 0.877 | 0.848 | 0.731 | 0.983 | 0.805 | 0.948 | 0.953 | 1.09 | 1.06 | 1.07 | 1.02 | 0.921 | 1.05 | 0.974 | – | – | – | – | – | – |
| COc1ccc(C[C@H]2NC[C@H](O)[C@H]2OC(C)=O)cc1 [anisomycin] | 0.84 | 0.602 | 0.226 | 0.0722 | 0.0685 | 0.0611 | 0.166 | 0.678 | 0.277 | 0.0792 | 0.0323 | 0.133 | 0.195 | 0.1 | 0.794 | 0.502 | 0.186 | 0.0402 | 0.0213 | 0.0357 | 0.053 | – | – | – | – | – | – |
| CCCC[C@H]1C(=O)O[C@H](C)[C@H](NC(=O)c2cccc(NC=O)c2O)C(=O)O[C@@H](C)[C@@H]1OC(=O)CC(C)C [antimycin-a] | 1.05 | 0.943 | 0.716 | 0.66 | 0.626 | 0.54 | – | 0.945 | 0.858 | 0.811 | 0.724 | 0.66 | 0.739 | – | 1.02 | 0.799 | 0.644 | 0.587 | 0.497 | 0.507 | – | 1.01 | 1.04 | 1.04 | – | – | – |
